These results are taken from paper PMC8110993, “Structure and antimicrobial activity of NCR169, a nodule-specific cysteine-rich peptide of Medicago truncatula” (Scientific Reports, 2021).

Assay [1] in a line: Liposome sedimentation (binding) assay. The procedure:
Figure 3 NCR169 binds to the bacterial phospholipid. (A) Circular dichroism (CD) spectra of NCR169 peptides (NCR169-ox1 and -ox2). NCR169 peptides (20 μM) were dissolved in the following solvents: water (No additives), 2 mM DMPC liposomes, 2 mM DMPG liposomes or 30% 2,2,2-trifluoroethanol (TFE). (B) The results of liposome binding assays. The NCR169 peptide (20 μM) was incubated with buffer (No lipid), 2 mM DMPC liposomes, or 2 mM DMPG liposomes. After incubation at room temperature for 30 min, the mixture was ultra-centrifuged at 200,000×g. The supernatant and pellet fractions were analyzed by Tricine-SDS-PAGE. The no lipid sample before ultra-centrifugation was used as the input.
The phospholipids DMPC and DMPG were purchased from Avanti Polar Lipids (Alabaster, AL, USA). An appropriate amount of phospholipid was dissolved in chloroform and dried under vacuum for 1 h. The lipid film was suspended in water, vortexed, and sonicated for 30 min to form the liposomes.
The assay was carried out as described previously. Briefly, equal volumes of NCR169 peptide (20 μM) and liposomes (2 mM) were mixed in assay buffer (20 mM HEPES, 150 mM NaCl, pH 7.0) and incubated for 30 min at room temperature, followed by ultracentrifugation at 200,000×g for 15 min at 20 °C. After centrifugation, the supernatant was collected, and the pellet was dissolved in the same volume of assay buffer containing 0.2% Triton X-100. The supernatant and pellet fractions were subjected to Tricine-SDS-PAGE, and peptides were detected by Coomassie Brilliant Blue staining.
Supplementary Figure S11. NCR 169 M binds to the bacterial phospholipid. (A) Circular dichroism (CD) spectra of NCR169M (20 μM) in water (No additive), 2 mM dimyristoylphosphatidylcholine (DMPC) liposomes, 2 mM dimyristoylphosphatidylglycerol (DMPG) liposomes or 30% 2,2,2-trifluoroethanol (TFE). (B) The result of liposome binding assay. NCR169M (20 μM) was incubated with buffer (No lipid),2 mM DMPC liposomes, or 2 mM DMPG liposomes . After incubation at room temperature for 30 min, the mixture was ultra-centrifuged at 200,000 × g. The supernatant and pellet fractions were analyzed by Tricine-SDS-PAGE. The no lipidsample before ultra-centrifugation was used as the input.
(also on this page, place not known: [θ] (103 deg cm2 dmol-1) markerkDa input No lipid sup ppt sup ppt sup ppt NCR169M lipid), DMPC 2 DMPG liposomes. lipid sample)
(1 picture or pasted object on this page, not shown here)
Supplementary Figure S12. The results of liposome binding assays. (A) NCR169-derived peptide (10 μM) was incubated with buffer (No lipid), 1 mM DMPC liposomes, 1 mM DMPG liposomes. After incubation at room temperature for 30 min, the mixture was ultra-centrifuged at 200,000 × g. The supernatant and pellet fractions were analyzed by Tricine-SDS-PAGE. The no lipid sample before ultra-centrifugation was used as the input. Arrows indicate weak bands. (B) […]

A further assay deals with Escherichia coli K-12. In kind it is cell-based. The settings on record: for IC100: E. coli K-12, drop plate method, 2 h treatment at room temperature, 5 mM HEPES-KOH pH 7.0. As for the experimental part:
(§1) Antimicrobial tests were performed using the drop plate method[12],[47]. Bacterial strains in the logarithmic phase (OD600 = 0.5–0.8) were diluted with 5 mM HEPES–KOH (pH 7.0) to a bacterial culture value of 1 × 10^6 CFU/mL. At OD600 = 0.1, the concentrations of S. meliloti and E. coli K-12 cells were 6.4 × 10^6 CFU/mL and 5.2 × 10^7 CFU/mL, respectively. Equal volumes of bacteria (S. meliloti or E. coli K-12) and NCR169 peptide or PMB were mixed and incubated at room temperature for 2 h. For antimicrobial tests against S. meliloti, 10 μL of each serially diluted mixture was spotted on MHB plates with 2.5 mM MgCl2, and 2.5 mM CaCl2, followed by incubation at 30 °C for 40 h. For antimicrobial tests against E. coli K-12, 10 μL of each mixture was spotted on Mueller Hinton Broth (MHB; MilliporeSigma, Burlington, MA, USA) plates followed by incubation at 30 °C for 13 h.
(§2) To estimate survival rate, the peptide-treated bacterial mixtures were serially diluted with the buffer before spotting on the plate. Bacterial survival rates were calculated using the colony numbers of each bacterial strain with or without peptide treatment. All experiments were repeated at least four times.
(§3) Supplementary Table S2. Antimicrobial activities of NCR169 peptides against E. coliK-12 and S. meliloti.
(§4) Peptide IC50 (μM)* IC100 (μM)
(§5) E. coli K-12 S. meliloti E. coli K-12 S. meliloti
(§6) IC50: 50% inhibitory concentration (Calculated using “Dose-response curve” fitting)

The next assay concerns Sinorhizobium meliloti. The format is cell-based. The settings on record: for IC100: drop plate method, 2 h treatment at room temperature, 5 mM HEPES-KOH pH 7.0. The procedure:
as §1, §2, §3, §4, §5, §6

Where [2] appears, read: NCR169-derived peptide 10 μM, 1 mM DMPG liposomes, 30 min room temperature, 200,000×g, Tricine-SDS-PAGE.

Like-named read-outs stand apart in the source and are kept apart here. Where a SMILES comes first, the peptide text is derived from it. Bridges are numbered along the chain shown (N, C = ends). Where no end group is shown, it is not given here.

As for `CC[C@H](C)[C@H](NC(=O)[C@H](CCCCN)NC(=O)[C@H](Cc1ccccc1)NC(=O)[C@H](CC(C)C)NC(=O)[C@@H]1CCCN1C(=O)[C@H](CCCCN)NC(=O)[C@H](CCCCN)NC(=O)[C@H](CO)NC(=O)[C@H](CCCCN)NC(=O)[C@H](Cc1ccc(O)cc1)NC(=O)CN)C(=O)N[C@@H](Cc1c[nH]c2ccccc12)C(=O)N[C@@H](CCCCN)C(=O)N[C@H]1CSSC[C@@H](C(=O)N[C@H](C(=O)N[C@@H](CC(C)C)C(=O)N[C@@H](Cc2c[nH]c3ccccc23)C(=O)N[C@@H](Cc2ccc(O)cc2)C(=O)N[C@@H](CCCCN)C(=O)O)C(C)C)NC(=O)[C@H](C(C)C)NC(=O)[C@H](CC(N)=O)NC(=O)[C@H](CCC(=O)O)NC(=O)[C@H](C(C)C)NC1=O` [NCR169CL-ox] (H-GYKSKKPLFKIWKCVENVCVLWYK-OH; disulfide 14-19), the “Binding to DMPG liposomes” value in assay [1] (setting [2]) is reported as “bound to DMPG liposomes”. Besides, the results for the IC100 in the assay on Escherichia coli K-12 and in the assay with Sinorhizobium meliloti (S. meliloti) were 0.5 µM and greater than 128 µM, respectively. In addition, the IC50 in the assay on Escherichia coli K-12 (K-12, 2 h, pH 7) was 140 nM; in the assay with Sinorhizobium meliloti (2 h, pH 7), 570 nM.
With `CC[C@H](C)[C@H](NC(=O)[C@H](CCCCN)NC(=O)CN)C(=O)N[C@@H](Cc1c[nH]c2ccccc12)C(=O)N[C@@H](CCCCN)C(=O)N[C@H]1CSSC[C@@H](C(=O)N[C@H](C(=O)N[C@@H](CC(C)C)C(=O)N[C@@H](Cc2c[nH]c3ccccc23)C(=O)N[C@@H](Cc2ccc(O)cc2)C(=O)N[C@@H](CCCCN)C(=O)O)C(C)C)NC(=O)[C@H](C(C)C)NC(=O)[C@H](CC(N)=O)NC(=O)[C@H](CCC(=O)O)NC(=O)[C@H](C(C)C)NC1=O` [NCR169CS-ox] (H-GKIWKCVENVCVLWYK-OH; disulfide 6-11), the “Binding to DMPG liposomes” value in assay [1] (setting [2]) is “bound to DMPG liposomes”. For the same compound, the IC100 in the assay on Escherichia coli K-12 is 64 µM; in the assay with Sinorhizobium meliloti (S. meliloti) it was greater than 128 µM. Moreover, the IC50 turned out to be 5600 nM in the assay on Escherichia coli K-12 (K-12, 2 h, pH 7) and 45000 nM in the assay with Sinorhizobium meliloti (2 h, pH 7).
As to `CC[C@H](C)[C@@H]1NC(=O)CNC(=O)[C@@H](NC(=O)[C@H](Cc2ccc(O)cc2)NC(=O)[C@H](CCCCN)NC(=O)[C@@H](NC(=O)[C@H](Cc2c[nH]cn2)NC(=O)CNC(=O)[C@@H](NC(=O)[C@H](CC(=O)O)NC(=O)[C@H](CCC(=O)O)NC(=O)CN)[C@@H](C)CC)[C@@H](C)CC)CSSC[C@@H](C(=O)N[C@@H](Cc2ccc(O)cc2)C(=O)O)NC(=O)[C@H](CC(=O)O)NC(=O)[C@H](CC(=O)O)NC(=O)[C@H](C(C)C)NC1=O` [NCR169N-ox] (H-GEDIGHIKYCGIVDDCY-OH; disulfide 10-16), the “Binding to DMPG liposomes” value in assay [1] (setting [2]) is “did not”. Moreover, the IC100 in the assay on Escherichia coli K-12 and in the assay on Sinorhizobium meliloti (S. meliloti) was greater than 128 µM in each case. For the same compound, the “Antimicrobial activity (in words)” value was “no antimicrobial activity” with Escherichia coli K-12 (E. coli K-12, various peptide concentrations) and “no antimicrobial activity” in the assay on Sinorhizobium meliloti (S. meliloti, various peptide concentrations).
For Polymyxin B [PMB, reference compound], the IC50 with Escherichia coli K-12 (E. coli K-12, 1 × 10^6 CFU/mL in 5 mM HEPES-KOH pH 7.0, 2 h at room temperature, spotted on MHB plates, 30 °C 13 h, survival rate from colony numbers, dose-response curve fitting, repeated at least four times, read-out: IC50 (50% inhibitory concentration)) stood at 18 nM; with Sinorhizobium meliloti (S. meliloti, 1 × 10^6 CFU/mL in 5 mM HEPES-KOH pH 7.0, 2 h at room temperature, spotted on MHB plates with 2.5 mM MgCl2 and 2.5 mM CaCl2, 30 °C 40 h, dose-response curve fitting, repeated at least four times, read-out: IC50 (50% inhibitory concentration)), 92 nM. Moreover, the figures for the IC100 with Escherichia coli K-12 and with Sinorhizobium meliloti (S. meliloti) were 0.031 µM and 0.25 µM, respectively.
Regarding YKSKKPLFKIWK [NCR169M], the “Binding to DMPG liposomes” value in assay [1] (peptide 20 μM, 2 mM DMPG liposomes, 20 mM HEPES, 150 mM NaCl, pH 7.0, 30 min room temperature, 200,000×g, supernatant and pellet by Tricine-SDS-PAGE) is on record as “bound to DMPG liposomes”. For the same compound, the figures for the IC100 in the assay on Escherichia coli K-12 and with Sinorhizobium meliloti (S. meliloti) were 0.5 µM and 2 µM, respectively. Further, the IC50 in the assay on Escherichia coli K-12 (K-12, 2 h, pH 7) came out at 83 nM; with Sinorhizobium meliloti (2 h, pH 7), 240 nM.
